These are literature values, as cited in US9101669B2, “Self-assembed conjugate and use thereof” (POSTECH ACADEMY-INDUSTRY FOUNDATION, priority 2012, dated 2015).

The conditions of the data set: 1 to 1 host-guest complex, protonated forms, aqueous solution.

On to `NCCCNCCCCNCCCN` [SPM, spermine], for which the binding constant is listed as ≤ 10^12 M^−1.
Turning to `NCCCCCCN` [DAH, 1,6-diaminohexane], the binding constant result is reported as “up to 10^10 M^−1”.
